How the values were obtained:
Shay ulcers = experiment: Gastric ulcers provoked by tying of the pylorus (Shay ulcers); format: in vivo; conditions: intraduodenal; rat, 50mg/kg/i.d.; read-out: Percentage reduction of shay ulcers
Method: The derivatives of formula I, administered by oral means, reduce the extent of gastric ulcers provoked in a rat by tying of the pylorus (Shay ulcers)
Table IV indicated, by way of example, the results obtained by the administration of 50mg/kg/i.d. of different derivatives of formula I.

[1] = tested on: painful stretchings caused by phenylbenzoquinone; experiment: Analgesic test with phenylbenzoquinone (painful stretchings); format: in vivo; conditions: Mus musculus, po; for inhibition in vivo at 100 mg/kg: read-out: Percentage of diminution of the number of painful stretchings; for ED50: read-out: 105 DE (DE 50)
[2] = tested on: isolated duodenum of the rat; experiment: Contractural action of barium chloride in isolated duodenum (spasmolytic); conditions: papaverine as standard
Method: The derivatives of formula I introduced in the conserving medium, are capable of opposing the contractural action of barium chloride in the isolated duodenum of the rat. This activity is evaluated taking papaverine as standard.

[3] = Lethal doses / percentage mortality; format: in vivo; conditions: in vivo, mouse; for LD50: po, Table IX, read-out: DE 50 (second column; DL 50) (converted)
Excerpt: (§1) As a result of a comparison between the pharmacologically active doses mentioned above, and the lethal doses listed in the following table XIV, the difference between the doses is sufficiently great to permit the utilisation of the derivatives of formula I in therapeutics.

[4] = tested on: number of explorations in the escape enclosure; experiment: Number of explorations in the escape enclosure (sedative properties); format: in vivo, mouse; conditions: po
[5] = tested on: arterial pressure of an anaesthetised rat; experiment: Increase in arterial pressure of anaesthetised rat (hypertensive properties); format: in vivo; conditions: 2 mg/kg/i.v.
Method: Administered by intraveinous means, the derivatives of formula I provoke an increase in the arterial pressure of an anaosthetised rat.
By way of example, the results obtained by the administration of 2 mg/kg/i.v. of different derivatives of formula I are listed in the following Table III.

volume of urine emitted = experiment: Augmentation of urinary elimination (diuretic properties); format: in vivo; conditions: po; mouse, 25mg/kg/p.o., 6 hours; read-out: Percentage augmentation of urinary elimination
Method: The derivatives of formula I, administered by oral means to the mouse, simultaneously with a volume of 1ml of an isotonic solution of sodium chloride per 25g of the corporeal weight of the mouse, are capable of provoking an augmentation of the volume of urine emitted by reference to control animals, the volume being measured for 6 hours following administration.
The following Table VII indicates, by way of example the percentage augmentation of urinary elimination resulting from the administration of 25mg/kg/p.o. of different derivatives of formula I.

[6] = tested on: isolated heart of the guinea-pig; experiment: Force of contractions on isolated heart (positive inotrope action)
Method: Additionally, the derivative of Code No. 730 712 added to the conserving medium in a concentration of 1 μg/ml, permit an augmentation of 140% in the force of contractions on the isolated heart of the guinea- pig.

[7] = tested on: bronchoconstriction provoked by acetylcholine; experiment: Bronchoconstriction provoked by intravenous acetylcholine, Konzett method; format: in vivo; conditions: guinea-pig, intraperitoneal injection of 100mg/kg
Method: Injected by intraduodenal means, the derivatives of formula I are capable of opposing the bronchoconstriction provoked in the guinea - pig by the intraveinous injection of acetylcholine and evaluated by the Konzett method.
By way of example, the following Table VI lists the percentage inhibition of the bronchoconstriction following the intraperitoneal injection of 100mg/kg of different derivatives of formula I.

[8] = tested on: mortality caused by strychnine; experiment: Mortality caused by sub-cutaneous injection of strychnine (myorelaxant); format: in vivo; conditions: mouse, 100 mg/kg/p.o.
Method: The derivatives of formula I, preventively administered by oral means to the mouse, reduce the mortality caused by the sub-cutaneous injection of strychnine.
Thus, the derivative of Code No. 72608, administered in a dose of 100 mg/kg/p.o., permits a 50 % protection against the lethality of strychnine.

[9] = tested on: number of explorations in the actimeter; experiment: Number of explorations in an actimeter having luminous beams and photoelectric cells (sedative properties); format: in vivo; conditions: mouse, oral, read-out: DE 50, number of explorations in the actimeter
Method: The derivatives of formula I, administered by oral means to the mouse, reduce the number of explorations in the escape enclosure and in an actimeter having luminous beams and photoelectric cells.
Also, the DE 50 of the derivative of code No. 730 229 is 82mg/kg/p.o. for the test on the number of explorations in the escape enclosure and 120mg/kg/p.o. for the test on the number of explorations in the actimeter.

[10] = tested on: painful stretchings caused by bradykinine; experiment: Analgesic test with bradykinine (painful stretchings); format: in vivo, mouse
[11] = tested on: painful stretchings caused by acetic acid; experiment: Analgesic test with acetic acid (painful stretchings); format: in vivo, mouse; conditions: po; test with acetic acid, mouse; read-out: 105 DE (DE 50)
[12] = tested on: analgesic action of dextromoramide in the Eddy test; experiment: Eddy test (potentialisation of dextromoramide analgesia); format: in vivo, mouse; conditions: Mus musculus, po, read-out: 105 DE (DE 50)
[13] = tested on: crying and jumping in the Randall and Selitto test; experiment: Randall and Selitto test; format: in vivo, rat; conditions: po; Randall and Selitto test, rat; read-out: 105 DE (DE 50)
[14] = tested on: pain threshold in the dentary pulp stimulation test; experiment: Dentary pulp stimulation test; format: in vivo; conditions: rabbit, 50 mg/kg rectally
Excerpt: Moreover, the derivatives of formula I, administered rectally to a rabbit, enabled the pain threshold to be raised in the dentary pulp stimulation test.
As an example, the following table XI gives the results of a comparative study between the activity of derivative code number 730 229 and that of glaphenine, the activities being estimated by the dentary stimulation test

[15] = tested on: local oedema caused by sub-plantar injection of carraghenine; experiment: Sub-plantar oedema caused by carraghenine (antiinflammatory); format: in vivo, rat
Excerpt: These properties are shown by a diminution of the local oedema caused by the sub-plantar injection of a phlogogenic agent, such as carraghenine, in the rat following the oral administration of derivatives of formula I.

mouse = experiment: Lethal doses / percentage mortality; format: in vivo; conditions: Table IX
Excerpt: as §1

In the case of `CCCN(CCC)CCOc1ccc(Nc2cc(C)nc(-c3ccccc3)n2)cc1` [730 282], the inhibition in vivo at 50 mg/kg (Shay ulcers) is reported as 50%, the inhibition in vivo at 100 mg/kg [1] is reported as 73% and the “spasmolytic activity relative to papaverine” value [2] is reported as “double to that of papaverine”. It also gave a mortality ([3]; 1000 mg/kg, 1 000 mg/kg/PO) of ~50%.
For `Cc1cc(Nc2ccc(OCCN3CCOCC3)cc2)nc(-c2cccc(C(F)(F)F)c2)n1` [730 712], the inhibition in vivo at 100 mg/kg ([4]; mouse, escape enclosure, 100mg/kg/p.o., read-out: Percentage diminution of number of explorations) was 32%, the “Percentage augmentation of arterial pressure” value [5] was 23% and the change in vivo at 25 mg/kg (volume of urine emitted) was 90%. It also gave an activation at 1 µg/mL ([6]; Cavia porcellus, 1 μg/ml, read-out: augmentation in the force of contractions) of 140%, an inhibition in vivo at 100 mg/kg [1] of 60% and a mortality ([3]; 2000 mg/kg, 2 000 mg/kg/PO) of 0%.
With `Cc1cc(Nc2ccccc2C(N)=O)nc(-c2ccc3c(c2)OCO3)n1` [72 608] the “Percentage inhibition of bronchoconstriction” value [7] was 65%, the inhibition in vivo at 100 mg/kg [1] was 55% and the “protection against the lethality of strychnine” value [8] was 50%. It also gave a mortality ([3]; 1 600 mg/kg/PO) of ~50%.
For `Cc1cc(Nc2ccc(OCCN3CCOCC3)cc2)nc(-c2ccccc2)n1` [730 229], the ED50 ([4]; Mus musculus, read-out: DE 50, number of explorations in the escape enclosure) was 82 mg/kg, the ED50 [9] was 120 mg/kg and the change in vivo at 25 mg/kg (volume of urine emitted) was 129%. For the same compound, the ED50 [1] was 10 mg/kg, the ED50 ([10]; Mus musculus, po, read-out: 105 DE (DE 50)) was 45 mg/kg and the ED50 [11] was 70 mg/kg. The ED50 [12] was 23 mg/kg, the ED50 [13] was 45 mg/kg and the Duration of action [14] was 2 h. The “Number of rabbits whose pain threshold is increased by 0,5 V” value [14] was 7/10, the Peak action [14] was 1 h and the “antiinflammatory activity compared with reference compounds” value ([15]; comparison of Table XIII) was “clearly superior to that of amidopyrine and acetylsalicylic acid, and hardly inferior to that of glaphenine”. For the same compound, the ED50 ([15]; po, antiinflammatory activity, rat, read-out: DE 50 (the source's name)) was 22 mg/kg, the mortality ([3]; 2 800 mg/kg/PO) was ~50% and the LD50 [3] was 2800 mg/kg. For the same compound, the “DE 50 (second column; DL 50)” value (mouse) was 2 800 mg/kg/PO.
In the case of `Cc1cc(Nc2ccc(OCCN3CCCC3)cc2)nc(-c2ccccc2)n1` [730 218], the positive inotrope action ([6]; 0.5 μg/ml) is reported as “positive inotrope action”, the ED50 [1] is reported as 37 mg/kg and the “Percentage of diminution of the number of painful stretchings” value ([10]; test with bradykinine, 100 mg/kg/PO) is reported as 40%. The ED50 [12] was 50 mg/kg, the mortality ([3]; 1 2500 mg/kg/PO) was ~50% and the LD50 [3] was 1500 mg/kg. For the same compound, the “DE 50 (second column; DL 50)” value (mouse) was 1 500 mg/kg/PO.
In the case of `Cc1cc(Nc2ccccc2C(N)=O)nc(-c2cccc(C(F)(F)F)c2)n1` [72 419], the change in vivo at 25 mg/kg (volume of urine emitted) is reported as 80%, the positive inotrope action ([6]; 1 μg/ml) is reported as “positive inotrope action” and the inhibition in vivo at 100 mg/kg ([15]; rat, 100 mg/kg/PO, read-out: Percentage reduction of subplantar oedema) is reported as 50%. It also gave a mortality ([3]; 2000 mg/kg, 2 000 mg/kg/PO) of 0%.

From patent publication US3978055A, “Arylamino pyrimidinic derivatives” (priority 1973, dated 1976)
